Values of other authors as cited in patent US6500632B1, “Assay for screening inhibitors of C4 plant enzymes” (Australian Institute of Marine Science, priority 1998, dated 2002).

Key:
[1] = biological target: T1, phosphoenolpyruvate carboxylase (Zea mays, UniProt P04711); details: literature (Jenkins et al.; McFadden et al.)
T1 sequence (P04711 1-970): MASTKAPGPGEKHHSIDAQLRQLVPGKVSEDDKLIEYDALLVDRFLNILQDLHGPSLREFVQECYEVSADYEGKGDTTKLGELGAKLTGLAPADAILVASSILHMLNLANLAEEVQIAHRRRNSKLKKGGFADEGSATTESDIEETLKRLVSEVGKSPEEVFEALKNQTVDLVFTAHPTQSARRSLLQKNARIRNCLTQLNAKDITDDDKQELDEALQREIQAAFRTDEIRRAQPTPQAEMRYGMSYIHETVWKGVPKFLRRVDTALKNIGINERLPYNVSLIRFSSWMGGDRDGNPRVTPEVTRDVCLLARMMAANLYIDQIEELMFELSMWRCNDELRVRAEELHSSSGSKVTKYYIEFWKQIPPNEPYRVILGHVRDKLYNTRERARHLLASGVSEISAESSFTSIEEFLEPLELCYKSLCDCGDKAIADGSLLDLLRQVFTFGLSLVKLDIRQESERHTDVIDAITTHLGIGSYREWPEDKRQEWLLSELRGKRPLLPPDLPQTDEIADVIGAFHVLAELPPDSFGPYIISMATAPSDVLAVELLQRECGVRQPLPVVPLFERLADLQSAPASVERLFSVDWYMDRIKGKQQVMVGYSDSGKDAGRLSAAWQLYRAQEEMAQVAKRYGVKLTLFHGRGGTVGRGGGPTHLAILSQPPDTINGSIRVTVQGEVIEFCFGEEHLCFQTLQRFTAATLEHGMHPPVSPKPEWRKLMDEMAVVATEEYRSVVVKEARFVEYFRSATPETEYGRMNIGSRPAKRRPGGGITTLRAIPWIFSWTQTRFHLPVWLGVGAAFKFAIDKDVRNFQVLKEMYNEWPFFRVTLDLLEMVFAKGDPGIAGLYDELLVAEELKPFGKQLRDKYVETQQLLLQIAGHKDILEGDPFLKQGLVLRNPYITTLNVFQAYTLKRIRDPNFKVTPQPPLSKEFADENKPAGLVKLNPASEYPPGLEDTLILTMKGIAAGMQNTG

C4 plants = details: literature

inhibition of a C4 enzyme (phosphoenolpyruvate carboxylase) [1]: specifically inhibited
Substance: 3,3-dichloro-2(dihydroxy-phosphinoylmethyl)propenoate
effect on the growth of C4 plants (C4 plants): no effect
